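The compound was tested at five concentrations on cells cultured in 96-well plates, with a 48-hour exposure period. GI50 = concentration required for 50% inhibition of growth.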 The source made the active and inactive calls. No stated cut-off is given here; in the data, active = GI50 up to about 1.1 µM and inactive = higher.
Tests used:
Assay in all cases: NCI-60 cell line screen, 48 h
SF-268 = tested on: SF-268
DMS-273 = tested on: DMS-273
NCI-H226 = tested on: NCI-H226
SK-MEL-28 = tested on: SK-MEL-28
SN12C = tested on: SN12C
SNB-75 = tested on: SNB-75
K562 = tested on: K562
OVCAR-5 = tested on: OVCAR-5
CCRF-CEM = tested on: CCRF-CEM
ACHN = tested on: ACHN
HCT-116 = tested on: HCT-116
786-0 = tested on: 786-0
COLO 205 = tested on: COLO 205
SK-MEL-5 = tested on: SK-MEL-5
M19-MEL = tested on: M19-MEL
SNB-78 = tested on: SNB-78
DU-145 = tested on: DU-145
IGROV-1 = tested on: IGROV-1
MDA-MB-231 = tested on: MDA-MB-231
HOP-92 = tested on: HOP-92

| Compound | GI50 (SF-268) | GI50 (DMS-273) | GI50 (NCI-H226) | GI50 (SK-MEL-28) | GI50 (SN12C) | GI50 (SNB-75) | GI50 (K562) | GI50 (OVCAR-5) | GI50 (CCRF-CEM) | GI50 (ACHN) | GI50 (HCT-116) | GI50 (786-0) | GI50 (COLO 205) | GI50 (SK-MEL-5) | GI50 (M19-MEL) | GI50 (SNB-78) | GI50 (DU-145) | GI50 (IGROV-1) | GI50 (MDA-MB-231) | GI50 (HOP-92) |
| --- | --- | --- | --- | --- | --- | --- | --- | --- | --- | --- | --- | --- | --- | --- | --- | --- | --- | --- | --- | --- |
| Cc1c2n(c3ccccc13)CC1C2N(C)OC1(C)C (centres undefined) | > 100 µM (inactive) | > 100 µM (inactive) | > 100 µM (inactive) | > 100 µM (inactive) | > 100 µM (inactive) | 81.5 µM (inactive) | > 100 µM (inactive) | > 100 µM (inactive) | > 100 µM (inactive) | > 100 µM (inactive) | > 100 µM (inactive) | > 100 µM (inactive) | > 100 µM (inactive) | > 100 µM (inactive) | > 100 µM (inactive) | > 100 µM (inactive) | – | – | – | – |
| COc1cc2cc(C(=O)N3C[C@H](CCl)c4c3cc(N)c3ccccc43)[nH]c2c(OC)c1OC | 0.593 µM (active) | – | 9.51 µM (inactive) | 0.0172 µM (active) | 0.592 µM (active) | 2.19 µM (inactive) | 2.39 µM (inactive) | 0.0906 µM (active) | 0.051 µM (active) | < 0.005 µM (active) | 0.00695 µM (active) | 5.11 µM (inactive) | 0.0173 µM (active) | < 0.005 µM (active) | – | – | 0.409 µM (active) | 0.218 µM (active) | 3.36 µM (inactive) | 0.0489 µM (active) |
| CC1=N/C(=C\c2cccc([N+](=O)[O-])c2)C(=O)O1 | > 100 µM (inactive) | – | – | > 100 µM (inactive) | > 100 µM (inactive) | 15.1 µM (inactive) | > 100 µM (inactive) | > 100 µM (inactive) | > 100 µM (inactive) | > 100 µM (inactive) | > 100 µM (inactive) | > 100 µM (inactive) | > 100 µM (inactive) | > 100 µM (inactive) | > 100 µM (inactive) | 86.1 µM (inactive) | – | > 100 µM (inactive) | – | > 100 µM (inactive) |
| COC(=O)C(CC(=O)Nc1ccc(C)cc1)C(=O)C(=O)Nc1c(C(C)C)cccc1C(C)C (centres undefined) | > 100 µM (inactive) | – | > 100 µM (inactive) | > 100 µM (inactive) | > 100 µM (inactive) | 97.7 µM (inactive) | > 100 µM (inactive) | > 100 µM (inactive) | > 100 µM (inactive) | > 100 µM (inactive) | > 100 µM (inactive) | > 100 µM (inactive) | > 100 µM (inactive) | – | > 100 µM (inactive) | > 100 µM (inactive) | – | > 100 µM (inactive) | – | > 100 µM (inactive) |
| Cc1ccc(S(=O)(=O)C2c3nc4ccccc4cc3-c3nc4ccccc4nc32)cc1 (centres undefined) | > 100 µM (inactive) | > 100 µM (inactive) | – | > 100 µM (inactive) | > 100 µM (inactive) | 53.8 µM (inactive) | > 100 µM (inactive) | > 100 µM (inactive) | > 100 µM (inactive) | > 100 µM (inactive) | > 100 µM (inactive) | > 100 µM (inactive) | > 100 µM (inactive) | 51.8 µM (inactive) | > 100 µM (inactive) | 67 µM (inactive) | – | > 100 µM (inactive) | – | > 100 µM (inactive) |
| O=[N+]([O-])c1ccc(NSc2ccccc2)cc1 | 28.2 µM (inactive) | 15.4 µM (inactive) | – | 45.3 µM (inactive) | 17.2 µM (inactive) | – | 23.6 µM (inactive) | 89.7 µM (inactive) | 3.03 µM (inactive) | 33.2 µM (inactive) | 25.2 µM (inactive) | 16.4 µM (inactive) | 30.7 µM (inactive) | 31.8 µM (inactive) | – | 38.3 µM (inactive) | – | 10.7 µM (inactive) | – | 28.7 µM (inactive) |
| O=S1(=O)CSc2ccc3ccccc3c2-c2c1ccc1ccccc21 | > 100 µM (inactive) | > 100 µM (inactive) | – | > 100 µM (inactive) | > 100 µM (inactive) | > 100 µM (inactive) | > 100 µM (inactive) | > 100 µM (inactive) | > 100 µM (inactive) | > 100 µM (inactive) | > 100 µM (inactive) | > 100 µM (inactive) | > 100 µM (inactive) | > 100 µM (inactive) | > 100 µM (inactive) | > 100 µM (inactive) | – | > 100 µM (inactive) | – | > 100 µM (inactive) |
| COc1ccc(CCn2c(=O)c3ccccc3n(C)c2=O)cc1 | 56.4 µM (inactive) | – | – | 57.5 µM (inactive) | 80.7 µM (inactive) | 25.9 µM (inactive) | 4.21 µM (inactive) | > 100 µM (inactive) | 23.7 µM (inactive) | > 100 µM (inactive) | 38.7 µM (inactive) | 67.1 µM (inactive) | 13.1 µM (inactive) | 31 µM (inactive) | 19.3 µM (inactive) | 36.5 µM (inactive) | – | > 100 µM (inactive) | – | – |

— ChEMBL document CHEMBL1201862, “PubChem BioAssay data set” (2004)
